Experimental data as given in patent US6235493A, “Amino acid substituted-cresyl violet, synthetic fluorogenic substrates for the analysis of agents in individual in vivo cells or tissue” (priority 1998, dated 2001).
Several values for one entry are separate records, joined by “and”; a condition that tells them apart may be missing. Equal values may be shown once. Starred links: 1 amine or outer side, 2 acyl side, 3 side chain; linkers in the order of their positions; H or OH if unused. Non-standard residues stand in square brackets, D forms with d. Residues, ends and D or L forms follow the SMILES beside them. *: point of attachment. hPhe = N[C@@H](CCc1ccccc1)C(=O)O; Morpholide = C1CN(*)CCO1; CO = O=C([*:1])[*:2]; CH2F = FC*

Legend:
[1] = target: cathepsin B (Rattus norvegicus, UniProt P00787); assay: Cathepsin B activity in homogenates of liver lobes of rats after oral FMK treatment; type: in vivo; details: 20 mg FMK per kg body weight daily, 14 days, all four lobes
Protocol: (§1) Sixteen rats were treated orally with 20 mg FMK per kg body weight dissolved in PBS and 5% dimethylformamide daily for 14 days starting one week before administration of the CC531 cells and continuing until sacrifice. Oral administration was performed directly into the stomach with a plastic tube attached to a syringe. Dosage and type of treatment were selected on the basis of previous experiments in which rats were treated with FMK-related inhibitors of cathepsins (34,40,53). The other 16 animals were treated similarly with PBS and dimethylformamide only. The LD50 of this type of FMK is at least 20-fold higher than the dosages used in the present experiment (40,53).
Cathepsin B activity was determined in homogenates obtained from each individual liver lobe of all rats according to Cox and Eley (56) with the use of the fluorogenic substrate CBZ-Ala-Arg-Arg-7-amino-4-trifluoromethylcoumarin (Enzyme Systems Products, Dublin, Calif.).
Whether or not the two weeks of oral treatment with the inhibitor had the same effect on cathepsin B activity in all liver lobes was determined.

[2] = cited from earlier work
[3] = tested on: CC531 colon cancer cells; assay: Colon cancer (CC531) metastasis in rat liver: number and volume of tumors per lobe; type: in vivo
Protocol: Induction of Metastasis in Rat Liver
Colon carcinoma tumors were induced in rat liver by injection of a single cell suspension containing 1×10^6 CC531 cells into the portal vein of 32 mature male WAG-Rij rats, weighing 180-200 g (Broekman, Someren, The Netherlands) as described previously in detail (46,51,52).
Treatment of Rats with FMK
as §1
Preparation of Cryostat Sections of Liver
Seven days after administration of CC531 cells, the animals were weighed and sacrificed with an overdose of sodium pentobarbital. Livers were removed immediately, the individual lobes were weighed and dissected and cut into small pieces (up to 5 mm thick) according to a rigid dissection scheme. The left lateral lobe was cut into eight pieces, the median lobe into nine pieces, the right lateral and caudate lobes into four pieces. Tissue fragments were frozen in liquid nitrogen and the material was kept at -80° C. until further use. Twenty-one sites were randomly selected in all lobes of each liver before the experiments were carried out. From these sites, sections (8 μm thick) were cut on a motor-drivencryostat with a rotary retracting microtome (Bright, Huntingdon, UK) at a constant but low speed and a cabinet temperature of -25° C. Sections were picked up onto clean glass slides and stored in the cryostat cabinet until used. These methods have been described in detail in Reference 54.
Staining of Tissue Sections
To facilitate recognition of cancer cells, cryostat sections were stained either with the periodic acid Schiff (PAS) reaction (54) or immunohistochemically using the lectin Ulex europaeus agglutinin I (Dako, Glostrup, Denmark), a selective marker of CC531 cells in rat (51,55). Immunocompetenet cells, endothelial cells and components of the extracellular matrix were localized with a panel of antibodies (Table 1) as described in detail by Griffini et al. (52). Control incubations were performed by replacing the first antibodies by non-immune sera in the same dilutions.
For calculation of the number and percentage volume of tumors in each liver lobe, the 8 micron thick sections were analyzed morphometrically using a Quantimet Q500 (Leica, Cambridge, UK) after staining with the lectin Ulex for the detection of cancer cells. The number of tumors was expressed per unit volume of liver tissue ±standard error of the mean or as ratio of the number of tumors in FMK-treated rats and those in untreated rats (×100). The percentage volume of tumors was expressed as the ratio of the volume of tumors and the total volume of the liver tissue including tumors ±standard error of the mean. Statistical analysis was performed with the 2-tailed Mann-Whitney test using the software program JPM (SAS Institute, Cary, N.C.).
The number of tumors is expressed per unit volume of liver tissue ± SEM or as the ratio of the number of tumors in treated rats compared with untreated rats (×100; %) as determined morphometrically in 8 μm thick cryostat sections stained with the lectin Ulex europaeus agglutinin I. Differences in number of tumors in left lateral and median lobes but not in right lateral and caudate lobes between treated and untreated animals were significant (P=0.006 and P=0.1, respectively). […]

[4] = 20 mg FMK/kg daily oral 14 days
[5] = +FMK, 20 mg/kg daily oral 14 days, ± SEM, n = 16
[6] = weighted by relative lobe wet weight

Chain of cathepsin B (P00787 80-333): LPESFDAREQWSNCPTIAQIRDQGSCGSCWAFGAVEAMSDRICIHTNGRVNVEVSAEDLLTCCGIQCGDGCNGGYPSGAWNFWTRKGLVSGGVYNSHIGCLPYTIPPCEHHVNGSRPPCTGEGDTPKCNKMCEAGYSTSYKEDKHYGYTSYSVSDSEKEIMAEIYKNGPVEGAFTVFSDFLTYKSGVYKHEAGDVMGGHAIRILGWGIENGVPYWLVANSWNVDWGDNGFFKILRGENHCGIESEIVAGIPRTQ

Question: Which “inhibition of cathepsin B activity in liver lobes” value [1] does the source give for `O=C(CF)[C@H](CCc1ccccc1)NC(=O)[C@H](Cc1ccccc1)NC(=O)N1CCOCC1` [FMK, Mu-Phe-homoPhe-fluoro-methylketone] ({Morpholide-CO}-Phe-[hPhe]-CH2F) here?
Answer: The value was ~50% and 51±14%.

Question: What about the water solubility [2] of the same compound?
Answer: Its water solubility is “water-soluble”.

Question: And the “ratio of number of tumors in treated vs untreated rats (×100), caudate lobe” value [3, 4]?
Answer: The value was 278%.

Question: And the “ratio of number of tumors in treated vs untreated rats (×100), left lateral lobe” value [3, 4]?
Answer: Its value is 24%.

Question: What about the “ratio of number of tumors in treated vs untreated rats (×100), median lobe” value [3, 4] of the same compound?
Answer: The value was 24%.

Question: And the “ratio of number of tumors in treated vs untreated rats (×100), right lateral lobe” value [3, 4]?
Answer: The value was 91%.

Question: What about the “ratio of percentage volumes in treated and untreated rats (×100), caudate lobe” value [3, 4] of the same compound?
Answer: The value was 283%.

Question: And the “ratio of percentage volumes in treated and untreated rats (×100), left lateral lobe” value [3, 4]?
Answer: Its value is 17%.

Question: And the “ratio of percentage volumes in treated and untreated rats (×100), median lobe” value [3, 4]?
Answer: The value was 3%.

Question: And the “ratio of percentage volumes in treated and untreated rats (×100), right lateral lobe” value [3, 4]?
Answer: The value was 35%.

Question: And the “average size of tumors in large lobes, treated relative to untreated” value ([3]; 20 mg FMK/kg per day)?
Answer: The value was 40%.

Question: What about the “effect on number of tumors in the caudate lobe” value ([3]; 20 mg FMK/kg per day) of the same compound?
Answer: The value was “increased rather than decreased, although the difference was not significant”.

Question: What about the “effect on size of tumors in the caudate lobe” value ([3]; 20 mg FMK/kg per day) of the same compound?
Answer: Its value is “not affected”.

Question: And the “number of tumors per unit volume in caudate lobe vs other lobes in treated rats” value ([3]; 20 mg FMK/kg per day)?
Answer: The value was 20 fold.

Question: What about the “reduction of total volume of tumors in the large lobes (average)” value ([3]; 20 mg FMK/kg per day) of the same compound?
Answer: Its value is 80%.

Question: And the “reduction of number of tumors in the large lobes (average)” value ([3]; 20 mg FMK/kg per day, one week before until one week after cells)?
Answer: The value was 60%.

Question: What about the “number of tumors, caudate lobe” value [3, 5] of the same compound?
Answer: Its value is 14.2 ± 7.5 per unit volume of liver tissu.

Question: What about the “number of tumors, left lateral lobe” value [3, 5] of the same compound?
Answer: The value was 0.5 ± 0.2 per unit volume of liver tissu.

Question: And the “number of tumors, median lobe” value [3, 5]?
Answer: The value was 0.4 ± 0.2 per unit volume of liver tissu.

Question: What about the “number of tumors, right lateral lobe” value [3, 5] of the same compound?
Answer: The value was 1.0 ± 0.4 per unit volume of liver tissu.

Question: And the “percentage volume of tumors, caudate lobe” value [3, 5]?
Answer: The value was 49.8 ± 38.5%.

Question: And the “percentage volume of tumors, left lateral lobe” value [3, 5]?
Answer: The value was 1.4 ± 0.5%.

Question: What about the “percentage volume of tumors, median lobe” value [3, 5] of the same compound?
Answer: Its value is 0.3 ± 0.6%.

Question: What about the “percentage volume of tumors, right lateral lobe” value [3, 5] of the same compound?
Answer: The value was 1.1 ± 0.2%.

Question: And the “effect on number or size of metastases, caudate lobe” value ([3]; in vivo treatment with FMK)?
Answer: Its value is “does not reduce number or size of metastases”.

Question: What about the “reduction of mean number of tumors in the entire liver” value [3, 6] of the same compound?
Answer: Its value is 35%.

Question: And the “reduction of mean volume of tumors in the entire liver” value [3, 6]?
Answer: Its value is 57%.
